Assay results: PubChem BioAssay AID330 (DTP/NCI, 2004)
Values joined by “and” are separate entries in the source; they are usually repeats but may differ in a detail not shown here. Equal entries are not always repeated. Toxic doses and inconclusive results are not listed.

Test system: P388 leukemia ip, CD2F1 mice, survival T/C
Test: NCI In Vivo Anticancer Drug Screen. Data for tumor model P388 Leukemia (intraperitoneal) in CD2F1 (CDF1) mice
Conditions: endpoint: median survival time, higher = longer survival
How it was run: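 Mice carrying the transplanted tumor received test compound or vehicle. Survival was recorded in each group, and the value is the treated-group measurement divided by that of the vehicle-treated control group.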

[1] = dose: 50.0 mg/kg/injection, schedule: Q04DX003 (ip), vehicle: saline with Tween-80
[2] = dose: 50.0 mg/kg/injection, schedule: Q01DX005 (ip), vehicle: Klucel (hydroxypropylcellulose) (HPC)
[3] = dose: 100.0 mg/kg/injection, schedule: Q01DX005 (ip), vehicle: Klucel (hydroxypropylcellulose) (HPC)
[4] = dose: 200.0 mg/kg/injection, schedule: Q01DX005 (ip), vehicle: Klucel (hydroxypropylcellulose) (HPC)

For COC(CC(C)(O)C(F)(F)F)OC (stereo unspecified), the T/C (dose: 60.0 mg/kg/injection, schedule: Q01DX005 (ip), vehicle: saline) was 103 % of control, the T/C (dose: 120.0 mg/kg/injection, schedule: Q01DX005 (ip), vehicle: saline) was 112 % of control and the T/C (dose: 240.0 mg/kg/injection, schedule: Q01DX005 (ip), vehicle: saline) was 110 % of control.
In the case of COc1cc(C=C(C(C)=O)C(C)=O)ccc1O, the T/C [1] is reported as 100 % of control, the T/C (dose: 100.0 mg/kg/injection, schedule: Q04DX003 (ip), vehicle: saline with Tween-80) is reported as 100 % of control and the T/C (dose: 200.0 mg/kg/injection, schedule: Q04DX003 (ip), vehicle: saline with Tween-80) is reported as 100 % of control.
CCOCC(=O)N[C@H]1CCc2cc(OC)c(OC)c(OC)c2-c2ccc(SC)c(=O)cc21 was tested, and the T/C (dose: 0.75 mg/kg/injection, schedule: Q01DX009 (ip), vehicle: Klucel (hydroxypropylcellulose) (HPC)) was 158 % of control and 161 % of control and the T/C (dose: 1.5 mg/kg/injection, schedule: Q01DX009 (ip), vehicle: Klucel (hydroxypropylcellulose) (HPC)) was 193 % of control and 229 % of control.
For CS(=O)(=O)c1nnc(-c2cc[n+]([O-])cc2)s1, the T/C (dose: 6.25 mg/kg/injection, schedule: Q01DX005 (ip), vehicle: Klucel (hydroxypropylcellulose) (HPC)) was 114 % of control and the T/C (dose: 12.5 mg/kg/injection, schedule: Q01DX005 (ip), vehicle: Klucel (hydroxypropylcellulose) (HPC)) was 114 % of control.
With CONS(=O)(=O)c1ccccc1C(=O)OC the T/C [2] was 105 % of control, the T/C [3] was 100 % of control and the T/C [4] was 103 % of control.
With [B-][N+](C)(C)Cc1ccccc1 the T/C (dose: 12.5 mg/kg/injection, schedule: Q01DX009 (ip), vehicle: saline with Tween-80) was 90 % of control, the T/C (dose: 25.0 mg/kg/injection, schedule: Q01DX009 (ip), vehicle: saline with Tween-80) was 90 % of control and the T/C (dose: 50.0 mg/kg/injection, schedule: Q01DX009 (ip), vehicle: saline with Tween-80) was 109 % of control.
In the case of C=C(c1ccc(OC)c(OC)c1)c1nccc2cc(OC)c(OC)cc12, the T/C [2] is reported as 98 % of control, the T/C [3] is reported as 96 % of control and the T/C [4] is reported as 100 % of control.
CCOC(=O)C(Cc1ccc(N(CCCl)CCCl)cc1)NP1(=O)NCCCO1 (stereo unspecified) was tested, and the T/C (dose: 14.0 mg/kg/injection, schedule: Q04DX003 (ip), vehicle: saline with Tween-80) was 186 % of control, the T/C (dose: 22.0 mg/kg/injection, schedule: Q04DX003 (ip), vehicle: saline with Tween-80) was 172 % of control and the T/C (dose: 33.0 mg/kg/injection, schedule: Q04DX003 (ip), vehicle: saline with Tween-80) was 218 % of control. The T/C [1] was 240 % of control.
With Cn1c(/C=N/NC2=NCCCN2)cnc1[N+](=O)[O-] the T/C (dose: 100.0 mg/kg/injection, schedule: Q04DX002 (ip), vehicle: saline with Tween-80) was 97 % of control, the T/C (dose: 200.0 mg/kg/injection, schedule: Q04DX002 (ip), vehicle: saline with Tween-80) was 104 % of control and the T/C (dose: 400.0 mg/kg/injection, schedule: Q04DX002 (ip), vehicle: saline with Tween-80) was 107 % of control.
